Assay in all cases: relative viability (nuclei count vs DMSO), 5 days (fraction); higher = more cells survive
Compound in the test “Trametinib + Alpelisib”: CC(=O)Nc1cccc(-n2c(=O)n(C3CC3)c(=O)c3c(Nc4ccc(I)cc4F)n(C)c(=O)c(C)c32)c1 [Trametinib] + Cc1nc(NC(=O)N2CCC[C@H]2C(N)=O)sc1-c1ccnc(C(C)(C)C(F)(F)F)c1 [Alpelisib] (partner 2 µM)
The essentials: (§1)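 Dosing by pin tool came one day after lung cancer cell lines were seeded in 1536-well plates, using either one drug or a fixed anchor-drug dose plus five library-drug doses (not always all listed) in √10 steps. After 5 days, nuclei were counted on 4× images. Relative viability is treated-well nuclei count divided by vehicle-well nuclei count, and values are medians of duplicate plates.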

Compound in the test “Trametinib + Olaparib”: CC(=O)Nc1cccc(-n2c(=O)n(C3CC3)c(=O)c3c(Nc4ccc(I)cc4F)n(C)c(=O)c(C)c32)c1 [Trametinib] + O=C(c1cc(Cc2n[nH]c(=O)c3ccccc23)ccc1F)N1CCN(C(=O)C2CC2)CC1 [Olaparib] (partner 8 µM)
The essentials:
as §1

Compound in test [1]: CN1C=C(C2=CC=CC=C21)/C=C\3/C4=C(C=CC=N4)NC3=O + COc1cc2c(Oc3ccc(NC(=O)C4(C(=O)Nc5ccc(F)cc5)CC4)cc3F)ccnc2cc1OCCCN1CCOCC1 [Foretinib] (partner 0.25 µM)
The essentials: as §1

Compound in test [2]: CN1C=C(C2=CC=CC=C21)/C=C\3/C4=C(C=CC=N4)NC3=O + Nc1nc2[nH]cc(CCc3ccc(C(=O)N[C@@H](CCC(=O)O)C(=O)O)cc3)c2c(=O)[nH]1 [Pemetrexed] (partner 0.2 µM)
The essentials: as §1

Turning to UMC-11, the relative viability with Trametinib + Alpelisib (first compound 0.0025 µM) came out at 0.904; with Trametinib + Alpelisib (first compound 0.007906 µM), 0.981; with Trametinib + Alpelisib (first compound 0.025 µM) it was 0.956; with Trametinib + Alpelisib (first compound 0.07906 µM), 0.876; with Trametinib + Alpelisib (first compound 0.25 µM), 0.945; in the test with Trametinib + Olaparib (first compound 0.0025 µM), 0.547. Also, the relative viability in the test with Trametinib + Olaparib (first compound 0.007906 µM) is 0.455; with Trametinib + Olaparib (first compound 0.07906 µM), 0.303; with Trametinib + Olaparib (first compound 0.25 µM) it was 0.29; in test [1] (first compound 0.02 µM) it was 0.835; in test [1] (first compound 0.06325 µM) it was 0.979; in test [1] (first compound 0.2 µM), 1.06. Moreover, the relative viability in test [1] (first compound 0.6325 µM) was 1.14; in test [1] (first compound 2 µM) it was 1.29; in test [2] (first compound 0.02 µM), 0.655; in test [2] (first compound 0.06325 µM) it was 0.744; in test [2] (first compound 0.2 µM) it was 0.801; in test [2] (first compound 0.6325 µM), 0.857. Also, the relative viability in test [2] (first compound 2 µM) worked out at 0.936.

These data come from the supplement of paper PMC10307832.
